Data set [1] has as its system iPSC colony formation. Kind of data set: iPSC colony formation and cell death after MG132 treatment. The format is cell-based. On the procedure: Mouse iPSCs were generated as previously described (Takahashi et al., 2007a) with some minor modifications. Briefly, MEFs (1-8×10^4/well) were seeded on irradiated-MEFs in a 6-well plate. On the next day, the cells were transduced with an equal amount of lentiviruses expressing the four factors and rtTA. The following day, transduced-MEFs were cultured with mESC medium containing 2 μg/mL Dox for 14 days. Tet-O-4F MEFs were used to generate iPSCs by treating MEFs with Dox in mESC medium. The efficiency of iPSC formation as calculated based on the number of AP positive iPSC colonies and the initial cell number of seeded MEFs. Human iPSCs were generated as previously described (Park et al., 2008).
(§1) Jmjd3-Trim26 is responsible for the enhanced reprogramming efficiency observed in Jmjd3-1-MEFs or in Dox-treated Tet-O-PHF20 MEFs.

Data set [2] has as its system PHF20 protein. In words: PHF20 protein amounts after MG132 treatment. The note with it: even when both Trim26 and Jmjd3 were overexpressed. The class given is cell-based.
Text: as §1

For data set [3], the system named is PHF20938-946-specific CD8+ T cells. In words: Recognition of peptide-pulsed T2 cells by PHF20-specific T cells (IFN-γ release). The format is cell-based, human. Particulars: T cells generated from PBMCs of HLA-A2+ healthy donors; FIG. 9A. The method, then: (FIG. 9A) PHF20938-946-specific CD8^+ T cells were generated from normal donor PBMCs after in vitro stimulation with PHF20 peptides, and used to determine the recognition of T2 cells loaded with different concentrations of PHF20938-946, peptide, or a control peptide as a negative control. (FIG. 9B) PHF20938-946-specific T cells were cultured alone in medium or co-incubated with HLA-A2^+ PHF20^+ (MCF-7) or HLA-A2^− PHF20^+ (DU4475, MDA-MB-361) breast cancer cell lines. A normal breast epithelial cell line MCF-10A is included as a control. T cell activity was determined by measuring cytokine (IFN-γ) release. (FIG. 9C) PHF20938-946-specific CD8^+ T cells were tested for cytotoxicity against MCF-7 by the LDH assay. HLA-A2 negative PHF20^+ PC3 cells were used as a negative control in the LDH assay. Data are plotted as means t SD. Results are representative of three independent experiments. *P<0.05, **P<0.01, ***P<0.001 versus controls.
Furthermore, PHF20-specific T cells could lyse HLA-A2^+ and PHF20^+ MCF-7 breast cancer cells (FIG. 9C).

Residues, ends and D or L forms follow the SMILES beside them. *: point of attachment. Cbz = O=C(OCc1ccccc1)*

As for `CC(C)C[C@@H](C=O)NC(=O)[C@H](CC(C)C)NC(=O)[C@H](CC(C)C)NC(=O)OCc1ccccc1` [MG132] (Cbz-Leu-Leu-Leu-aldehyde), the cell death result in data set [1] (MG132 treatment during reprogramming) is listed as “caused cell death”. Further, the iPSC colony formation entry in data set [1] (after MG132 treatment) is listed as “no iPSC colony formation was observed”. The “amounts of PHF20 protein” value in data set [2] is on record as “increased the amounts of PHF20 protein”.
As for WQFNLLTHV (PHFP 2), in data set [3], the “recognition of peptide-pulsed cells by PHF20-specific T cells” value is listed as “capable of recognizing”.

For the origin of these results see patent US20160017011A1, “PHF20 AND JMJD3 COMPOSITIONS AND METHODS OF USE IN CANCER IMMUNOTHERAPY” (priority 2013, published 2016).
